Tests used:
H1734 cells [1] = test: MTT viability, protection from Ro-31-8220 induced cytotoxicity; assay type: cell-based, human; settings: H1734, inhibitor 2 h then 20 μM Ro-31-8220, 24 h
Protocol: (§1) The cytotoxic activity of Ro-31-8220 was also determined against the all four NSCLC cells and NHTBE cells. Briefly, the cells (2,000/well) were incubated in triplicate in 96-well plates in the presence or absence of indicated test samples in a final volume of 0.2 ml for different days at 37° C. Afterwards, we performed the MTT assay.

[2] = test system: NSCLC cells (H1734, H226, A549, H292); test: MTT assay, NSCLC cell lines; assay type: cell-based, human
Protocol: as §1

CREB = test: Western blot of p-CREB (CREB activation) in H1734 cells; assay type: cell-based, human; settings: serum free media, time course and various concentrations for 4 h
Protocol: (§2) Western Blot Analysis. Protein extracts from each of NSCLC cells and the NHTBE cells, were prepared by lysing the cells in SDS lysis buffer (250 mM Tris-Cl, pH 6.5, 2% SDS, 4% β-mercaptoethanol, 0.02% bromophenol blue, 10% glycerol) containing protease and phosphatase inhibitors. Standard SDS-PAGE and Western blotting procedures were used to analyze the cell extracts. Nitrocellulose blots were probed with anti-CREB and anti-phospho-specific pSer-133 CREB (Upstate Biotechnology, Waltham, Mass.); anti-Bcl-2, anti-Bcl-XL, anti-phospho-Erk1/2, and anti-Erk1/2 (Santa Cruz Biotechnology, Santa Cruz, Calif.); and anti-phospho-Rsk and anti-Rsk (Cell Signaling Technology, Cambridge, Mass.). To detect the cleavage products of apoptosis, nitrocellulose blots were probed with anti-poly (ADP-ribose) polymerase (PARP), anti-caspase-9, and anti-caspase-3 antibodies (New England Biolabs, Beverly, Mass.). Anti-actin antibodies were purchased from Sigma-Aldrich (St. Louis, Mo.) and the caspase-3 inhibitor Ac-DEVD-CHO was obtained from Promega (Madison, Wis.).

[3] = test system: CRE consensus oligonucleotide binding; test: EMSA of CRE consensus oligonucleotide binding, H1734 nuclear extracts; assay type: cell-based, human; settings: serum free media
Protocol: Electrophoretic Mobility Shift Assay. Isolation of nuclear extracts, sequences, preparation of oligonucleotide probes, electrophoretic mobility shift assay (EMSA) was conducted as previously described (19).

pCREB = test: Immunocytochemistry for pCREB localization in H1734 cells; assay type: cell-based, human; settings: 20 μM, 4 h, serum free media
Protocol: Immunocytochemistry for CREB Localization. H1734 cells (1×10^5 cells/ml) were plated on a glass chamber slide (Falcon; BD Biosciences, San Jose, Calif.) for adherence and treated the next day for 4 h with Ro-31-8220. The chambers were removed, and cells were fixed with cold acetone. After a brief washing in PBS, the slides were blocked with 5% normal goat serum in PBS for 1 h and then incubated for 4 h with rabbit polyclonal anti-pCREB antibody (dilution, 1:100). The slides were washed, incubated with goat anti-rabbit IgG-Alexa 594 (Molecular Probes, Eugene, Oreg.) (dilution 1:100) for 1 h, and counter-stained for nuclei with 4′,6-diamidino-2-phenylindole, dihydrochloride (DAPI; 50 ng/ml) (Molecular Probes, Eugene, Oreg.) for 15 min. The slides were mounted with a mounting medium (Sigma-Aldrich), and confocal images were captured with an Olympus FV500 confocal microscope (NY) by using a Plan Apo 60× oil objective.

phospho-Rsk = test: Western blot of phospho-Rsk in H1734 cells; assay type: cell-based, human; settings: serum free media
Protocol: as §2

phospho-Erk1/2 = test: Western blot of phospho-Erk1/2 in H1734 cells; assay type: cell-based, human
Protocol: as §2

NHTBE cells = test: MTT assay, NHTBE cells; assay type: cell-based, human; settings: NHTBE cells compared with NSCLC cells
Protocol: as §1

H1734 cells [4] = test: Flow cytometric cell cycle analysis; assay type: cell-based, human; settings: H1734, 10 μM
Protocol: Flow Cytometric Analysis. H1734 cells were first synchronized by serum starvation overnight and then exposed to Ro-31-8220 for different lengths of time in the presence of 5% serum. The cells were washed, trypsinized, and fixed in 70% ethanol for 1 h at −20° C. Finally, cells were washed with PBS, resuspended, and stained in PBS containing 25 μg of propidium iodide and 1 μg/ml RNAase a for 30 min at room temperature. The distribution of cells during the cell cycle was then analyzed with a Facscalibur flow cytometer (Becton Dickinson, Bedford, Mass.).

H1734 cells [5] = test: Western blot of apoptosis cleavage products (PARP, caspase-9, caspase-3); assay type: cell-based, human
Protocol: as §2

H1734 cells [6] = test: Soft agar colony assay, H1734; assay type: cell-based, human; settings: H1734, 2 μM, 28 days
Protocol: (§3) Soft Agar Colony Assay. Single-cell suspensions of the H1734 and H226 cells were treated with or without different concentrations of Ro-31-8220 and then mixed with agarose to a final concentration of 0.35%. Aliquots of 1.5 ml containing 10^4 cells and 10% fetal calf serum were plated in triplicate in six-well plates over a base layer of 0.7% agarose and allowed to gel. The number of colonies that were greater than 60 μm was counted after 28 days of incubation.

H226 cells = test: Soft agar colony assay, H226; assay type: cell-based, human; settings: H226, 2 μM, 28 days
Protocol: as §3

H1734 cells [7] = test: TUNEL apoptosis assay; assay type: cell-based, human; settings: H1734, 5 μM, 48 h
Protocol: Apoptosis Assay. H1734 cells (200,000) were plated in chamber slides; the next day, transfected with CREBwt, KCREB, and CREB133 DNA (100 ng/chamber), and with 100 nM siCREB. The terminal transferase dUTP nick end labeling (TUNEL) assay was performed according to the manufacturer's instructions (Promega). Briefly, the cells were fixed after 48 h of transfection in 4% formaldehyde and permeabilized with 0.5% Triton-X-100. The cells were incubated on the slides with terminal deoxynucleotidyl transferase and fluorescein-dUTP. They were then co-stained with DAPI and visualized with an Axioskop 40 fluorescence microscope (Carl Zeiss, Thornwood, N.Y.). Three fields were randomly counted for each sample. The images were captured at a magnification of 400× and stored using Axiovision software (Carl Zeiss), as described in the instructions provided by the manufacturer.

[8] = test system: U937 human leukemia cells; settings: cited from earlier work
interleukin-6 = settings: human cord blood-derived mast cells, mouse bone marrow-derived mast cells; cited from earlier work
[9] = test system: nuclear transcription factor kappa B-dependent transcription; settings: pulmonary A549 cells; cited from earlier work

CC(=O)N[C@@H](CC(=O)O)C(=O)N[C@@H](CCC(=O)O)C(=O)N[C@H](C(=O)N[C@H](C=O)CC(=O)O)C(C)C [Ac-DEVD-CHO]
protection from Ro-31-8220 induced cytotoxicity (H1734 cells [1]): protected the cells

O=S(=O)(NCCNC/C=C/c1ccc(Br)cc1)c1cccc2cnccc12 [H-89]
cell growth of NSCLC cell lines ([2]; compared with Ro-31-8220): not significantly inhibiting the cell growth

Cn1cc(C2=C(c3cn(CCCSC(=N)N)c4ccccc34)C(=O)NC2=O)c2ccccc21 [Ro-31-8220, 2-{1-[3-(Amidinothio)propyl]-1H-indol-3-yl}-3-(1-methylindol-3-yl)maleimide]
CREB activation (p-CREB) (CREB): substantially suppressed | CRE consensus oligonucleotide binding [3]: suppressed in a time dependent and dose dependent manner | nuclear pCREB localization (pCREB): induced the nuclear disappearance of pCREB | concentration at which decrease of phospho-Rsk began (phospho-Rsk; 4 h): 5 µM | time to suppression of phospho-Rsk (phospho-Rsk): ≤ 2 h | time to start of decrease of phospho-Erk1/2 expression (phospho-Erk1/2): ≤ 30 min | concentration at which decrease of phospho-Erk1/2 began (phospho-Erk1/2; 4 h): 5 µM | mitochondrial activity (MTT), cell growth ([2]; all four NSCLC cell lines, dose-dependent): suppressed mitochondrial activity | suppression of mitochondrial activity (MTT) (NHTBE cells): significantly less than that in the NSCLC cells | percentage of cells in the G2 phase (H1734 cells [4]; 6 h, controls 18%): 24.5% | percentage of cells in G2 phase (H1734 cells [4]; 24 h, controls 15%): 53% | PARP cleavage (H1734 cells [5]; H1734, 20 μM Ro-31-8220): cleavage of a 118-kDa PARP protein into an 87-kDa fragment | caspase-9 activation (H1734 cells [5]; H1734, 20 μM Ro-31-8220, 47-kDa to 37-kDa band): time-dependent activation | caspase-3 activation (H1734 cells [5]; H1734, 20 μM Ro-31-8220, 24 h): activation of caspase-3 | decrease in colony formation (H1734 cells [6]): 85% | decrease in colony formation (H226 cells): 85% | cells in which apoptosis was induced (TUNEL) (H1734 cells [7]): 52% | apoptosis in U937 human leukemia cells [8]: induces apoptosis | proliferation of U937 human leukemia cells [8]: suppressed the proliferation | autocrine growth factor interleukin-6 (interleukin-6): suppress | NF-kappa B-dependent transcription [9]: suppress
